Measurements: US20100075907A1, “NEUROMEDIN U RECEPTOR AGONISTS AND USES THEREOF” (priority 2006, published 2010)
Non-standard residues stand in square brackets, D forms with d. Residues, ends and D or L forms follow the SMILES beside them. No end group written: not given here. hArg = N=C(N)NCCCC[C@H](N)C(=O)O; dNle = CCCC[C@@H](N)C(=O)O

Each compound was assayed against T1, hNMUR1 (Homo sapiens, UniProt Q9HB89) (assay: In vitro functional assay, HEK-hR1 cells). Conditions: Table 8, HEK-hR1, functional.
T1 sequence (Q9HB89 1-426): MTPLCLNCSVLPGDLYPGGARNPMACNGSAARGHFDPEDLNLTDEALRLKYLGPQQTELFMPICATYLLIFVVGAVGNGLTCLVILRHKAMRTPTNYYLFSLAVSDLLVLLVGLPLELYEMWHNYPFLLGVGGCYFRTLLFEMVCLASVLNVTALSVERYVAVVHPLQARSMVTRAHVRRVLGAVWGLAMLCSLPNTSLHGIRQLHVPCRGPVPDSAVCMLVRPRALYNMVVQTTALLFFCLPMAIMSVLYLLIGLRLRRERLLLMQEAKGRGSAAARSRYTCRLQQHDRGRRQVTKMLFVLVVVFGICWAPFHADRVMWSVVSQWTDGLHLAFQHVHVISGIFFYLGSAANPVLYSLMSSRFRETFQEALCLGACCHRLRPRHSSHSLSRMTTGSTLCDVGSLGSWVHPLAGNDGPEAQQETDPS
Assay type: cell-based
Set-up: expressed in transfected cells; host or cells: FLP-In CHO or HEK-293 FLP-In cells (pcDNA5); HEK-293/aeq17 lines (pIRES-puro) were also made
Excerpt: Human, mouse or rat cDNAs encoding NMUR1 or NMUR2 (as described in Howard et al. Nature 406: 70-74 (2000) were subcloned in pcDNA5 (Invitrogen) and transfected into FLP-In CHO cells and HEK-293 FLP-In cells purchased from Invitrogen (Carlsbad, Calif.) using lipofectamine (Invitrogen). The Flp-In system allows integration and expression of a particular gene of interest at a specific genomic location utilizing the Flp recombinase from yeast. The transfected cells were selected by growth in medium containing 200 μg/mL hygromycin (Invitrogen). Populations were frozen at early passage numbers, and these stocks were used for further studies. Stable clones that expressed the mRNAs were identified functionally by FLIPR as well as by RT-PCR. […] Two different rodent NMUR1 cell lines were thus generated: one with the codon as predicted from the genomic databases and another cell line with an engineered methionine (ATG) as the start codon. Additionally, stable cell lines expressing the human receptors were generated in HEK-293/aeq17 cells which stably express the aequorin gene under the CMV promoter. The human NMUR2 cDNA was cloned into pcDNA3.1 and human NMUR1 was subcloned into pIRES-puro (Clontech, Mountain View, Calif.), after transfection cells were selected in media containing G418 and either hygromycin (NMUR2) or puromycin (NMUR1).
The NMU receptors signal primarily through Gαq/11 proteins; therefore calcium mobilization assays can be utilized for functional activity.
Stable cell lines expressing human and or rodent NMUR1 or human NMUR2 receptors were plated at a density of 12,000 cells per well overnight on poly-lysine coated 384-well black-walled plates. The following day, the media was removed from the plates and the cells were subsequently loaded with Fluo-3 (Molecular Probes), a calcium sensitive dye, diluted in FLIPR buffer (1× Hank's buffered saline containing 20 mM HEPES, 0.1% BSA, 2.5 mM probenecid (Sigma) and 1.6 mM TR40). All reagents are from Invitrogen unless otherwise noted. Peptide stocks were resuspended in DMSO at a stock concentration of 2 mM and diluted in FLIPR buffer on the day of the experiment to a 4 μM working stock solution.
After a 90 minute incubation at room-temperature, cell plates were loaded onto a FLIPR (Molecular Devices) to monitor cellular fluorescence (excitation=488 nm; emission=540 nm) before and after compound/peptide addition. Eight to twelve point dose responses were tested on NMUR-expressing cell lines using FLIPR with 1 μM peptide as the highest dose. The response after peptide addition was taken as the maximum fluorescence units minus the fluorescence immediately prior to stimulation for each well. EC50 values were calculated using GraphPad Prism (San Diego, Calif.) software.
In addition to FLIPR, NMU receptor function can also be evaluated using an aequorin assay. Stable cell lines expressing the aequorin jelly fish gene can be used to report the activation of GPCRs by monitoring intracellular calcium mobilization. The objective is to identify compounds which specifically stimulate aequorin bioluminescence. Calcium-dependent luminescence is generated by the treatment of cells with the coelenterate luciferin, coelenterazine. Briefly, confluent monolayers of HEK-293/aeq 17 cells expressing hNMUR1 or hNMUR2 are “charged” with coelenterazine (Molecular Probes, Carlsbad, Calif.). Confluent T75 flasks are rinsed with media containing 300 μM glutathione and 0.1% FBS. Cells are incubated at 37° C. for one hour in 8 mL media, 0.1% FBS, 300 μM glutathione, and 20 μM coelenterazine. T75 flasks are subsequently rinsed with 6 mL ECB buffer (140 mM NaCl, 20 mM KCl, 20 mM HEPES, 5 mM glucose, 1 mM MgCl, 1 mM CaCl2, 0.1 mg/mL BSA, PH 7.3-7.4). Cells are removed from the flask in ECB buffer, pelleted, and resuspended at a density of 2×10^5 cells/mL. Agonists are added to the cells and activity is determined using a luminometer. […]

Compound | % Activity [%] | IC50 [nM]
CC(C)C[C@@H](NC(=O)[C@H](Cc1ccccc1)NC(=O)[C@@H](N)Cc1ccc(O)cc1)C(=O)N[C@@H](Cc1c[nH]c2ccccc12)C(=O)N[C@@H](CCCNC(=N)N)C(=O)N1CCC[C@H]1C(=O)N[C@@H](CCCNC(=N)N)C(=O)N[C@@H](CC(N)=O)C(N)=O [Agonist B, YF-(D-L)-WRPRN-CONH2] (H-YF[dL]WRPRN-NH2) | 103 | 
C[C@@H](NC(=O)[C@H](Cc1ccccc1)NC(=O)[C@@H](N)Cc1ccc(O)cc1)C(=O)N[C@@H](Cc1c[nH]c2ccccc12)C(=O)N[C@@H](CCCNC(=N)N)C(=O)N1CCC[C@H]1C(=O)N[C@@H](CCCNC(=N)N)C(=O)N[C@@H](CC(N)=O)C(N)=O [Agonist D, YF-(D-A)-WRPRN-CONH2] (H-YF[dA]WRPRN-NH2; N-terminus assumed) | 96 | 
CC(=O)N[C@@H](Cc1ccccc1)C(=O)N[C@H](CC(C)C)C(=O)N[C@@H](Cc1c[nH]c2ccccc12)C(=O)N[C@@H](CCCNC(=N)N)C(=O)N1CCC[C@H]1C(=O)N[C@@H](CCCNC(=N)N)C(=O)N[C@@H](CC(N)=O)C(N)=O [Agonist E, Ac-F-(D-L)-WRPRN-CONH2] (Ac-F[dL]WRPRN-NH2) | 100 | 
CC(C)C[C@@H](NC(=O)[C@H](Cc1ccccc1)NC(=O)[C@H](Cc1ccc(O)cc1)NC(=O)CNC(=O)[C@H](CCCNC(=N)N)NC(=O)[C@H](CO)NC(=O)[C@H](CCC(N)=O)NC(=O)[C@H](CO)NC(=O)[C@H](C)NC(=O)[C@H](Cc1ccccc1)NC(=O)[C@@H]1CCCN1C(=O)[C@H](CO)NC(=O)[C@H](CCC(N)=O)NC(=O)[C@H](Cc1ccccc1)NC(=O)[C@H](CCC(=O)O)NC(=O)[C@H](CCC(=O)O)NC(=O)[C@H](CC(=O)O)NC(=O)[C@@H](NC(=O)[C@H](CCCNC(=N)N)NC(=O)[C@@H](N)Cc1ccccc1)C(C)C)C(=O)N[C@@H](Cc1c[nH]c2ccccc12)C(=O)N[C@@H](CCCNC(=N)N)C(=O)N1CCC[C@H]1C(=O)N[C@@H](CCCNC(=N)N)C(=O)N[C@@H](CC(N)=O)C(N)=O [Agonist H] (H-FRVDEEFQSPFASQSRGYF[dL]WRPRN-NH2; N-terminus assumed) | 88 | 19
Ac-FFRPRN-NH2 [Agonist F, Ac-FFRPRN-CONH2] | 96 | 42
H-FRVDEEFQSPFASQSRGYFWRPRN-NH2 [Agonist G] | 91 | 

Same assay, conditions: Table 9, HEK-hR1, functional

Compound | % Activity [%] | EC50 [nM]
CC(C)C[C@H](NC(=O)[C@H](Cc1c[nH]c2ccccc12)NC(=O)[C@@H](N)Cc1ccccc1)C(=O)N[C@@H](Cc1ccccc1)C(=O)N[C@@H](CCCNC(=N)N)C(=O)N1CCC[C@H]1C(=O)N[C@@H](CCCCNC(=N)N)C(=O)N[C@@H](CC(N)=O)C(N)=O [Agonist I, FWLFRP-(Harg)-N-CONH2] (H-FWLFRP[hArg]N-NH2) | 7 | > 1000
CC(C)C[C@H](NC(=O)[C@H](Cc1c[nH]c2ccccc12)NC(=O)[C@@H](N)Cc1ccccc1)C(=O)N[C@@H](Cc1ccccc1)C(=O)N[C@@H](CCCNC(=N)N)C(=O)N[C@@H](C)C(=O)N[C@@H](CCCCNC(=N)N)C(=O)N[C@@H](CC(N)=O)C(N)=O [Agonist J, FWLFRA-(Harg)-N-CONH2] (H-FWLFRA[hArg]N-NH2) | 0 | > 1000
CCCC[C@@H](NC(=O)[C@H](CCCNC(=N)N)NC(=O)[C@H](C)NC(=O)[C@H](CCCNC(=N)N)NC(=O)[C@H](Cc1ccccc1)NC(=O)[C@H](CC(C)C)NC(=O)[C@H](Cc1ccccc1)NC(=O)[C@@H](N)Cc1c[nH]c2ccccc12)C(N)=O [Agonist K, WFLFRAR-(D-Nle)-CONH2] (H-WFLFRAR[dNle]-NH2) | 61 | 400
CC(C)C[C@H](NC(=O)[C@H](Cc1c[nH]c2ccccc12)NC(=O)[C@H](Cc1ccccc1)NC(=O)CNC(=O)[C@H](CCCNC(=N)N)NC(=O)[C@H](CO)NC(=O)[C@H](CCC(N)=O)NC(=O)[C@H](CO)NC(=O)[C@H](C)NC(=O)[C@H](Cc1ccccc1)NC(=O)[C@@H]1CCCN1C(=O)[C@H](CO)NC(=O)[C@H](CCC(N)=O)NC(=O)[C@H](Cc1ccccc1)NC(=O)[C@H](CCC(=O)O)NC(=O)[C@H](CCC(=O)O)NC(=O)[C@H](CC(=O)O)NC(=O)[C@@H](NC(=O)[C@H](CCCNC(=N)N)NC(=O)[C@@H](N)Cc1ccccc1)C(C)C)C(=O)N[C@@H](Cc1ccccc1)C(=O)N[C@@H](CCCNC(=N)N)C(=O)N1CCC[C@H]1C(=O)N[C@@H](CCCCNC(=N)N)C(=O)N[C@@H](CC(N)=O)C(N)=O [Agonist O] (H-FRVDEEFQSPFASQSRGFWLFRP[hArg]N-NH2; N-terminus assumed) | 35 | 420
CC(C)C[C@H](NC(=O)[C@H](Cc1c[nH]c2ccccc12)NC(=O)[C@H](Cc1ccccc1)NC(=O)CNC(=O)[C@H](CCCNC(=N)N)NC(=O)[C@H](CO)NC(=O)[C@H](CCC(N)=O)NC(=O)[C@H](CO)NC(=O)[C@H](C)NC(=O)[C@H](Cc1ccccc1)NC(=O)[C@@H]1CCCN1C(=O)[C@H](CO)NC(=O)[C@H](CCC(N)=O)NC(=O)[C@H](Cc1ccccc1)NC(=O)[C@H](CCC(=O)O)NC(=O)[C@H](CCC(=O)O)NC(=O)[C@H](CC(=O)O)NC(=O)[C@@H](NC(=O)[C@H](CCCNC(=N)N)NC(=O)[C@@H](N)Cc1ccccc1)C(C)C)C(=O)N[C@@H](Cc1ccccc1)C(=O)N[C@@H](CCCNC(=N)N)C(=O)N[C@@H](C)C(=O)N[C@@H](CCCCNC(=N)N)C(=O)N[C@@H](CC(N)=O)C(N)=O [Agonist P] (H-FRVDEEFQSPFASQSRGFWLFRA[hArg]N-NH2; N-terminus assumed) | 11 | 
CCCC[C@@H](NC(=O)[C@H](CCCNC(=N)N)NC(=O)[C@@H]1CCCN1C(=O)[C@H](CCCNC(=N)N)NC(=O)[C@H](Cc1ccccc1)NC(=O)[C@H](CC(C)C)NC(=O)[C@H](Cc1c[nH]c2ccccc12)NC(=O)[C@H](Cc1ccccc1)NC(=O)CNC(=O)[C@H](CCCNC(=N)N)NC(=O)[C@H](CO)NC(=O)[C@H](CCC(N)=O)NC(=O)[C@H](CO)NC(=O)[C@H](C)NC(=O)[C@H](Cc1ccccc1)NC(=O)[C@@H]1CCCN1C(=O)[C@H](CO)NC(=O)[C@H](CCC(N)=O)NC(=O)[C@H](Cc1ccccc1)NC(=O)[C@H](CCC(=O)O)NC(=O)[C@H](CCC(=O)O)NC(=O)[C@H](CC(=O)O)NC(=O)[C@@H](NC(=O)[C@H](CCCNC(=N)N)NC(=O)[C@@H](N)Cc1ccccc1)C(C)C)C(N)=O [Agonist Q] (H-FRVDEEFQSPFASQSRGFWLFRPR[dNle]-NH2) | 0 | > 1000
CC(C)C[C@H](NC(=O)[C@H](Cc1ccccc1)NC(=O)[C@@H](N)Cc1ccc(O)cc1)C(=O)N[C@@H](Cc1ccccc1)C(=O)N[C@@H](CCCNC(=N)N)C(=O)N1CCC[C@H]1C(=O)N[C@@H](CCCNC(=N)N)C(=O)N[C@@H](CC(N)=O)C(N)=O [NMU-8, reference compound] | 100 | 
FALFRPRN-NH2 [Agonist N] | 87 | 
H-FRVDEEFQSPFASQSRGYFLFRPRN-NH2 [hNMU-25, reference compound] | 100 | 5.5
